Measured values taken from ChEMBL document CHEMBL4330185, “Computer-Assisted Discovery and Structural Optimization of a Novel Retinoid X Receptor Agonist Chemotype” (ACS Med Chem Lett, 2019).
Converted amounts (≈) assume the structure as drawn. Blank lines part the entries; values can stand above or below the compound they belong to. The source made the active and inactive calls. The rule behind the calls is not given here.

Key:
[1] = target: T1, Retinoic acid receptor RXR-beta (Homo sapiens) (UniProt P28702); test: Agonist activity at human Gal4-DBD fused RXRbeta LBD expressed in HEK293T cells at 30 uM after 12 to 14 hrs by luciferase reporter gene assay; type: cell-based
T1 sequence (whole entry): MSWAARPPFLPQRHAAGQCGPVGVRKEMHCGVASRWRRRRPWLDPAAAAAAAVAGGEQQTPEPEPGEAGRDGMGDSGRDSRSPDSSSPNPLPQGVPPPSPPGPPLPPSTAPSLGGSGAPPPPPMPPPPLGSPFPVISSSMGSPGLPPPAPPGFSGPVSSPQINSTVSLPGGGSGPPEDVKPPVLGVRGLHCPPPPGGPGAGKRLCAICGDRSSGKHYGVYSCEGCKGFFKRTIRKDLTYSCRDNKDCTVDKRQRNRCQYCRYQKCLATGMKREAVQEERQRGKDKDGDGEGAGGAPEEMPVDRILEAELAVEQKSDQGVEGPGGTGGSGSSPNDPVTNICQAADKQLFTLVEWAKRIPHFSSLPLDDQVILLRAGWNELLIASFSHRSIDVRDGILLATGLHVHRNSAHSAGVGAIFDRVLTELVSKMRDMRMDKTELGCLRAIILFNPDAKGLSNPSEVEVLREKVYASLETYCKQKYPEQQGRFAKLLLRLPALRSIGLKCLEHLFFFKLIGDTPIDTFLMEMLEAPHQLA

[2] = target: T2, Retinoic acid receptor RXR-alpha (Homo sapiens) (UniProt P19793); test: Agonist activity at human Gal4-DBD fused RXRalpha LBD expressed in HEK293T cells at 30 uM after 12 to 14 hrs by luciferase reporter gene assay; type: cell-based
T2 sequence (whole entry): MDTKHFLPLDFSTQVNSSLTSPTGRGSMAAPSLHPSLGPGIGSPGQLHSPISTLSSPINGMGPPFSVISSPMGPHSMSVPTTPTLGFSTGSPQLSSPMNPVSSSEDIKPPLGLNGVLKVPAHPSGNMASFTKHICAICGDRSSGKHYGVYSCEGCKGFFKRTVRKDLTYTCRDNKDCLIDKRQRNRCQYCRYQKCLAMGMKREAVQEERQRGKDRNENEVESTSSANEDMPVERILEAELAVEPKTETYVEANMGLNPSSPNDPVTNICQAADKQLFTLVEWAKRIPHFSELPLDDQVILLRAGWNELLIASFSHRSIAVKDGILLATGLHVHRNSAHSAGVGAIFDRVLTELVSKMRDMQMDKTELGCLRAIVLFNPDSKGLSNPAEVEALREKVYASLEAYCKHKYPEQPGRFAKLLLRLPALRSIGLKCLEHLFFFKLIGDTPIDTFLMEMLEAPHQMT

[3] = target: T3, Retinoic acid receptor RXR-gamma (Homo sapiens) (UniProt P48443); test: Agonist activity at human Gal4-DBD fused RXRgamma LBD expressed in HEK293T cells at 30 uM after 12 to 14 hrs by luciferase reporter gene assay; type: cell-based
T3 sequence (whole entry): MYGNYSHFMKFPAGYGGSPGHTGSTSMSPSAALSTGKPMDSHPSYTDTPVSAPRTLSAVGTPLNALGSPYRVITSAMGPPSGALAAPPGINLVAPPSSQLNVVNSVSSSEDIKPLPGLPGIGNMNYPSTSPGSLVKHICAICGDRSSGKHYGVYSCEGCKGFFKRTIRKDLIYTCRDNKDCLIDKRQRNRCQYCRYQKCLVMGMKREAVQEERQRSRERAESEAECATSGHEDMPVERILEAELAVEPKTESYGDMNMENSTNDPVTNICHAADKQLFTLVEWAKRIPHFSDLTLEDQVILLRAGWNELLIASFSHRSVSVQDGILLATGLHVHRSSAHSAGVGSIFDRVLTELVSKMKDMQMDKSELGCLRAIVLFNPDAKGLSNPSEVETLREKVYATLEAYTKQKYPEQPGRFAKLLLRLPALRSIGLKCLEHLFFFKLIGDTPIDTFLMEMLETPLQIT

HepG2 = test: Cytotoxicity against human HepG2 cells up to 100 uM after 48 hrs by WST1 assay; type: cell-based; conditions: hepg2, 48 h
[4] = Lipophilicity, log P of the compound by HPLC analysis; type: physicochemical; conditions: read-out: logP
[5] = target: T4, Retinoic acid receptor RXR-alpha (Homo sapiens, UniProt P19793); test: Binding affinity to human RXRalpha LBD by ITC
T4 sequence (P19793 whole entry): T2 sequence (whole entry)

[6] = Synergistic agonist activity at full length human PPARgamma-RXR expressed in HEK293T cells co-expressing PPRE1-pGL3 after 12 to 14 hrs in presence of rosiglitazone by luciferase reporter gene assay; type: cell-based; conditions: HEK-293T
Homo sapiens [7] = species on record: Homo sapiens; test: Synergistic agonist activity at full length human RXR-LXR expressed in HEK293T cells co-expressing ABCA1-pGL3 at 1 uM after 12 to 14 hrs in presence of T090 by luciferase reporter gene assay; type: cell-based
[8] = target: T5, Retinoic acid receptor RXR-gamma (Homo sapiens, UniProt P48443); test: Agonist activity at human Gal4-DBD fused RXRgamma LBD expressed in HEK293T cells after 12 to 14 hrs by luciferase reporter gene assay; type: cell-based; conditions: read-out: EC50
T5 sequence (P48443 whole entry): T3 sequence (whole entry)

[9] = target: T4, Retinoic acid receptor RXR-alpha; test: Agonist activity at human Gal4-DBD fused RXRalpha LBD expressed in HEK293T cells after 12 to 14 hrs by luciferase reporter gene assay; type: cell-based; conditions: read-out: EC50
[10] = target: T6, Retinoid X receptor (Homo sapiens) (UniProt P28702+P48443+P19793); test: Agonist activity at RXR in human HepG2 cells assessed as induction of APOE mRNA expression at 1 to 10 uM after 8 hrs by RT-PCR analysis; type: cell-based
[11] = Agonist activity at full length human PPARgamma-RXR expressed in HEK293T cells co-expressing PPRE1-pGL3 after 12 to 14 hrs by luciferase reporter gene assay; type: cell-based; conditions: HEK-293T
Homo sapiens [12] = species on record: Homo sapiens; test: Agonist activity at full length human RXR-LXR expressed in HEK293T cells co-expressing ABCA1-pGL3 at 1 uM after 12 to 14 hrs by luciferase reporter gene assay; type: cell-based
[13] = target: T6, Retinoid X receptor (Homo sapiens); test: Agonist activity at RXR in human HepG2 cells assessed as induction of ADIPOQ mRNA expression at 1 to 10 uM after 8 hrs by RT-PCR analysis; type: cell-based
[14] = Aqueous solubility of the compound after 24 hrs by HPLC analysis; type: physicochemical; conditions: water
[15] = target: T2, Retinoic acid receptor RXR-alpha (Homo sapiens); test: Agonist activity at human Gal4-DBD fused RXRalpha LBD expressed in HEK293T cells after 12 to 14 hrs by luciferase reporter gene assay relative to bexarotene; type: cell-based
[16] = target: T6, Retinoid X receptor (Homo sapiens); test: Agonist activity at RXR in human HepG2 cells assessed as induction of ANGPTL4 mRNA expression at 1 to 10 uM after 8 hrs by RT-PCR analysis; type: cell-based
[17] = target: T3, Retinoic acid receptor RXR-gamma (Homo sapiens); test: Agonist activity at human Gal4-DBD fused RXRgamma LBD expressed in HEK293T cells after 12 to 14 hrs by luciferase reporter gene assay relative to bexarotene; type: cell-based
[18] = target: T7, Retinoic acid receptor RXR-beta (Homo sapiens, UniProt P28702); test: Agonist activity at human Gal4-DBD fused RXRbeta LBD expressed in HEK293T cells after 12 to 14 hrs by luciferase reporter gene assay; type: cell-based; conditions: read-out: EC50
T7 sequence (P28702 whole entry): T1 sequence (whole entry)

[19] = target: T1, Retinoic acid receptor RXR-beta (Homo sapiens); test: Agonist activity at human Gal4-DBD fused RXRbeta LBD expressed in HEK293T cells after 12 to 14 hrs by luciferase reporter gene assay relative to bexarotene; type: cell-based
[20] = target: T8, Retinoic acid receptor gamma (Homo sapiens) (UniProt P13631); test: Agonist activity at human Gal4-DBD fused RARgamma LBD expressed in HEK293T cells at 30 uM after 12 to 14 hrs by luciferase reporter gene assay; type: cell-based
T8 sequence (whole entry): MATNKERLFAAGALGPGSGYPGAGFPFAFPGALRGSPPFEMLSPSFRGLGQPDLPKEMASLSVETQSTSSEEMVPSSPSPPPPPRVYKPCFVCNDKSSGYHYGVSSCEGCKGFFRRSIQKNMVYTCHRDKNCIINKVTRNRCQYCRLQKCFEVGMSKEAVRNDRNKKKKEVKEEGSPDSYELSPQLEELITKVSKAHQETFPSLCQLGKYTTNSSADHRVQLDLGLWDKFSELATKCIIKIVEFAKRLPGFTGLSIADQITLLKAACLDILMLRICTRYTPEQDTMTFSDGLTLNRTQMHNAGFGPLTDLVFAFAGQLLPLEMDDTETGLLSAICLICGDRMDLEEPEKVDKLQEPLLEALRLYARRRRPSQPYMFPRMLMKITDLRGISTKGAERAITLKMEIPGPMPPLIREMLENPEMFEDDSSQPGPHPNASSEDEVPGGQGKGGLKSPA

[21] = target: T9, Retinoic acid receptor alpha (Homo sapiens) (UniProt P10276); test: Agonist activity at human Gal4-DBD fused RARalpha LBD expressed in HEK293T cells at 30 uM after 12 to 14 hrs by luciferase reporter gene assay; type: cell-based
T9 sequence (whole entry): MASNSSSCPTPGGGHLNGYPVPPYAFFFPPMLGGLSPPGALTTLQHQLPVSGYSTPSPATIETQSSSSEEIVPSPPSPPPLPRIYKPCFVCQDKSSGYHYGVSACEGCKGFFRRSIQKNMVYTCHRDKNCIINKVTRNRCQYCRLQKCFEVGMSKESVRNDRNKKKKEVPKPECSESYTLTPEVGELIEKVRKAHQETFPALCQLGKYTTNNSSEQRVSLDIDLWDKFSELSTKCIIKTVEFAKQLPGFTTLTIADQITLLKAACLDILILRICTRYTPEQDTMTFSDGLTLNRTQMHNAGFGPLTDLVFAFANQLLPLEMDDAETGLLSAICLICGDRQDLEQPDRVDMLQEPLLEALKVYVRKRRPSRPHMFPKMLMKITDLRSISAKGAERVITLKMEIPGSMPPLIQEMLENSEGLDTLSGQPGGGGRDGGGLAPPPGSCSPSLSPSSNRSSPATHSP

[22] = target: T2, Retinoic acid receptor RXR-alpha (Homo sapiens); test: Agonist activity at human Gal4-DBD fused RXRalpha LBD expressed in HEK293T cells at 10 uM after 12 to 14 hrs by luciferase reporter gene assay; type: cell-based
[23] = target: T10, Retinoic acid receptor beta (Homo sapiens) (UniProt P10826); test: Agonist activity at human Gal4-DBD fused RARbeta LBD expressed in HEK293T cells at 30 uM after 12 to 14 hrs by luciferase reporter gene assay; type: cell-based
T10 sequence (whole entry): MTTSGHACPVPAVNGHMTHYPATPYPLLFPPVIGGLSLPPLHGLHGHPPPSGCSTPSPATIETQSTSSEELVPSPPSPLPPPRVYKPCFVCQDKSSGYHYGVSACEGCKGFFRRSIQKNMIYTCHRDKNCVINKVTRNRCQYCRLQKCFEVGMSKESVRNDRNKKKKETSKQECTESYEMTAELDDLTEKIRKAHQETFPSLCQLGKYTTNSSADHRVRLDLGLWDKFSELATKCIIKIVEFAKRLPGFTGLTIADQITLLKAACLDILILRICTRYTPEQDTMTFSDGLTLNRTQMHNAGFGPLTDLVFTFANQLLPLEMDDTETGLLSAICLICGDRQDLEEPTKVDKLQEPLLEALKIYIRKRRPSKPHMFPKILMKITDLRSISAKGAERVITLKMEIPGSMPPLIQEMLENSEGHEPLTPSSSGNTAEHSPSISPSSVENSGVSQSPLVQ

[24] = target: Luciferin 4-monooxygenase (Photinus pyralis) (UniProt P08659); test: Inhibition of firefly luciferase activity in HEK293T cells co-expressing human Gal4-DBD fused RXRgamma LBD after 12 to 14 hrs by luminescence assay; type: cell-based
[25] = target: Luciferin 4-monooxygenase (Photinus pyralis) (UniProt P08659); test: Inhibition of firefly luciferase activity in HEK293T cells co-expressing human Gal4-DBD fused RXRalpha LBD after 12 to 14 hrs by luminescence assay; type: cell-based
[26] = target: Luciferin 4-monooxygenase (Photinus pyralis) (UniProt P08659); test: Inhibition of firefly luciferase activity in HEK293T cells co-expressing human Gal4-DBD fused RXRbeta LBD after 12 to 14 hrs by luminescence assay; type: cell-based

Chain of Luciferin 4-monooxygenase (Photinus pyralis) (P08659 whole entry, the tested form may be a part): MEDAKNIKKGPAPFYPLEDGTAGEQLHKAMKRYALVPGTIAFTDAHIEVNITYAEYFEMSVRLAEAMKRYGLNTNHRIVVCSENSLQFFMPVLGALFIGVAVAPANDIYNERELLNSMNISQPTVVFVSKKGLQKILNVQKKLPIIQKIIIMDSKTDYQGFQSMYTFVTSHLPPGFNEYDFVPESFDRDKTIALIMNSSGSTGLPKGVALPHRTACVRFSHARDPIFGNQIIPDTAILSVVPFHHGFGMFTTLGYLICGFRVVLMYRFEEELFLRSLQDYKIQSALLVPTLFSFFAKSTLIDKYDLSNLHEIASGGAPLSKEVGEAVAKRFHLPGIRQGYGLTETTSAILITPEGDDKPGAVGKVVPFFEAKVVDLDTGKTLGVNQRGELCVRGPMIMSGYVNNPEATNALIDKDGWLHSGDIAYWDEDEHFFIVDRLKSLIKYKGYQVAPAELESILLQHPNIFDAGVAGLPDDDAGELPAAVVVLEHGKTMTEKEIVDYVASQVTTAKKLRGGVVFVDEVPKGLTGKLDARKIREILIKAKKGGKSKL

Activity [1]: inactive
Activity [2]: inactive
Activity [3]: inactive
Compound: O=C(O)c1ccc(C(=O)Nc2ccc3c(c2)CCC3)cc1

logP [4]: 2.03
Kd [5]: 0.095 µM
EC50 [6]: 0.47 µM
EC50 [8]: 1.6 µM
EC50 [9]: 0.28 µM
Activity [10]: Active
EC50 [11]: 1 µM
Activity [13]: Active
solubility at 24 h [14]: 1.31 µg/mL (≈ 4.3 µM)
Emax [15]: 70%
Activity [16]: Active
Emax [17]: 94%
EC50 [18]: 0.31 µM
Emax [19]: 44%
Compound: O=C(O)c1ccc(COc2ccccc2-c2ccccc2)cc1
Activity (HepG2): Non-Toxic
Activity (Homo sapiens [7]): Active
Activity (Homo sapiens [12]): Active

Activity [20]: Active
Activity [21]: Active
EC50 [8]: 17 µM
EC50 [9]: 6.7 µM
Activity [22]: Active
Activity [23]: Active
Emax [15]: 29%
Emax [17]: 5%
EC50 [18]: 8.8 µM
Emax [19]: 28%
Compound: O=C(O)c1ccc(COc2ccc3c(c2)CCC3)cc1
Activity (HepG2): Non-Toxic

inhibition [24]: Active
inhibition [25]: Active
inhibition [26]: Active
Compound: O=C(O)c1cccc(COc2ccc3c(c2)CCC3)c1
